From patent US20260041683A1, “Compounds with Anti-Acinetobacter Baumannii Activity” (University of Kentucky Research Foundation, priority 2022, published 2026)
In brackets after ≈: the same amount, converted by molar mass. Read-outs that look alike come from different tables or passages of the source.

Assays:
[1] = test system: S. epidermidis ATCC 12228; test: MIC determination; format: cell-based; settings: Staphylococcus epidermidis, ATCC12228; Table 5; Mueller-Hinton medium; C = S. epidermidis ATCC 12228; read-out: MIC strain C
[2] = test system: Ab ATCC 19606 (strain I); test: MIC determination (double dilution, Mueller-Hinton broth); format: cell-based, Acinetobacter baumannii; settings: Acinetobacter baumannii, ATCC19606
Experimental: All bacterial strains listed above were stored at −80° C. All strains were streaked on Mueller-Hinton (MH) plates and allowed to grow at 37° C. overnight. […] The resulting culture was diluted 1:1000 and added to the prepared serially doubly diluted compound solutions in 96-well plates. For M. smegmatis, a 1:100 dilution of the bacteria was done in MH. All MIC values were determined using 96-well plates with low evaporation seals at least in duplicate. For each row, one well was reserved for sterile control (which consisted of 200 μL of MH medium) and another well was reserved for growth control (which consisted of 100 μL of MH medium seeded with 100 μL of bacterial culture).
(§1) Minimum inhibitory concentrations (MIC) of all compounds from the series were measured in liquid cultures of different Ab strains by a double-dilution method in Mueller-Hinton broth. Initially, the activity of all 46 compounds against Ab ATCC 19606 (a control strain) and Ab ATCC BAA1605 (a multidrug-resistant strain) (Table 1; data shown for 27 representative compounds) was measured.

[3] = test system: all 43 strains of A. baumannii (41 CDC strains and 2 ATCC strains); test: MIC value statistics for all A. baumannii strains; format: cell-based, Acinetobacter baumannii; settings: of 43 A. baumannii strains
Experimental: All bacterial strains listed above were stored at −80° C. All strains were streaked on Mueller-Hinton (MH) plates and allowed to grow at 37° C. overnight. Enough colonies were scraped from the plate and suspended in MH broth with vortexing to reach an attenuance at 600 nm (OD600) of ˜0.5. The resulting culture was diluted 1:1000 and added to the prepared serially doubly diluted compound solutions in 96-well plates. […]. For each row, one well was reserved for sterile control (which consisted of 200 μL of MH medium) and another well was reserved for growth control (which consisted of 100 μL of MH medium seeded with 100 μL of bacterial culture).
Having established that the observed activity is selective to A. baumannii, all synthesized compounds were tested against a panel of antibiotic resistant A. baumannii from the Antimicrobial Resistant (AR) Isolate Bank from the CDC along with strains I and J (Table Si). […]. Based on this statistical analysis, the best compound is 5e followed closely by 3e.

[4] = test system: S. aureus ATCC 25923; test: MIC determination; format: cell-based; settings: Staphylococcus aureus, ATCC25923; Table 5; Mueller-Hinton medium; B = S. aureus ATCC 25923; read-out: MIC strain B
[5] = test system: E. cloacae ATCC 13047; test: MIC determination; format: cell-based; settings: Enterobacter cloacae, ATCC13047; Table 5; Mueller-Hinton medium; E = E. cloacae ATCC 13047; read-out: MIC strain E
[6] = test system: E. coli MC1061; test: MIC determination; format: cell-based; settings: Escherichia coli; Table 5; Mueller-Hinton medium; D = E. coli MC1061; read-out: MIC strain D
[7] = test system: P. aeruginosa ATCC 27853; test: MIC determination; format: cell-based; settings: Pseudomonas aeruginosa, ATCC27853; Table 5; Mueller-Hinton medium; G = P. aeruginosa ATCC 27853; read-out: MIC strain G
[8] = test system: S. enterica ATCC 14028; test: MIC determination; format: cell-based; settings: Salmonella enterica, ATCC14028; Table 5; Mueller-Hinton medium; H = S. enterica ATCC 14028; read-out: MIC strain H
[9] = test system: Ab ATCC BAA1605 (strain J, multidrug-resistant); test: MIC determination; format: cell-based; settings: Acinetobacter baumannii
Experimental: All bacterial strains listed above were stored at −80° C. All strains were streaked on Mueller-Hinton (MH) plates and allowed to grow at 37° C. overnight. Enough colonies were scraped from the plate and suspended in MH broth with vortexing to reach an attenuance at 600 nm (OD600) of ˜0.5. The resulting culture was diluted 1:1000 and added to the prepared serially doubly diluted compound solutions in 96-well plates. For M. smegmatis, a 1:100 dilution of the bacteria was done in MH. All MIC values were determined using 96-well plates with low evaporation seals at least in duplicate. For each row, one well was reserved for sterile control (which consisted of 200 μL of MH medium) and another well was reserved for growth control (which consisted of 100 μL of MH medium seeded with 100 μL of bacterial culture).
as §1

[10] = test system: B. anthracis Sterne F32; test: microbe, parasite or virus in culture; format: cell-based; settings: Bacillus anthracis, STERNEF32, read-out: MIC strain A
[11] = test system: K. pneumoniae ATCC 27736; test: MIC determination; format: cell-based; settings: Klebsiella pneumoniae, ATCC27736; Table 5; Mueller-Hinton medium; F = K. pneumoniae ATCC 27736; read-out: MIC strain F
[12] = Table 5, Mueller-Hinton medium, I = A. baumannii ATCC 19606, read-out: MIC strain I
[13] = Table 5, Mueller-Hinton medium, J = A. baumannii BAA1605, read-out: MIC strain J
[14] = Table 1, control strain, read-out: MIC Ab ATCC 19606
[15] = Table 1, multidrug-resistant strain, read-out: MIC Ab ATCC BAA 1605

| Structure (SMILES) | MIC [1] [µg/mL] | MIC [2, 12] [µg/mL] | number of compound/strain combinations with MIC value 0.25 μg/mL [3] | number of compound/strain combinations with MIC value 0.5 μg/mL [3] | number of compound/strain combinations with MIC value 1 μg/mL [3] | number of compound/strain combinations with MIC value ≤0.125 μg/mL [3] | MIC [4] [µg/mL] | MIC [5] [µg/mL] | MIC [6] [µg/mL] | MIC [7] [µg/mL] | MIC [8] [µg/mL] | MIC [9, 13] [µg/mL] | MIC [10] [µg/mL] | MIC [11] [µg/mL] | MIC [2, 14] [µg/mL] | MIC [9, 15] [µg/mL] | number of compound/strain combinations with MIC value 2 μg/mL [3] | number of compound/strain combinations with MIC value 4 μg/mL [3] | number of compound/strain combinations with MIC value 8 μg/mL [3] |
| --- | --- | --- | --- | --- | --- | --- | --- | --- | --- | --- | --- | --- | --- | --- | --- | --- | --- | --- | --- |
| O=C(NNc1ccc(Cl)cc1)c1cc2ccccc2[nH]1 [Compound 14e] | > 64 | 0.5 (≈ 1.75 µM) | 18 | 20 | 2 | 3 | > 64 | > 64 | > 64 | > 64 | > 64 | 0.25 (≈ 0.875 µM) | > 64 | > 64 |  |  |  |  |  |
| O=C(NNc1ccc(Cl)cc1)c1ccco1 [Compound 15e] | 64 (≈ 270 µM) | 0.5 (≈ 2.11 µM) | 18 | 10 | 2 | 13 | 64 (≈ 270 µM) | 4 (≈ 16.9 µM) | 16 (≈ 67.6 µM) | > 64 | 16 (≈ 67.6 µM) | ≤ 0.125 | > 64 | 16 (≈ 67.6 µM) | 0.5 (≈ 2.11 µM) | ≤ 0.125 |  |  |  |
| CCC(=O)NNc1ccc(Cl)cc1 [Compound 16e] | > 64 | ≤ 0.125 | 17 | 10 | 1 | 15 | > 64 | 16 (≈ 80.5 µM) | 16 (≈ 80.5 µM) | > 64 | 64 (≈ 322 µM) | ≤ 0.125 | > 64 | 16 (≈ 80.5 µM) | ≤ 0.25 | ≤ 0.125 |  |  |  |
| COc1ccc(NNC(=O)c2ccc(F)cn2)cc1 [Compound 3f] | > 64 | 1 (≈ 3.83 µM) | 1 | 2 | 9 |  | > 64 | > 64 | > 64 | > 64 | > 64 | 0.5 (≈ 1.91 µM) | > 64 | > 64 | 1 (≈ 3.83 µM) | 0.5 (≈ 1.91 µM) | 19 | 11 | 1 |
| C=CC(=O)NNc1ccc(Cl)cc1 [Compound 17e] | 64 (≈ 325 µM) | 0.25 (≈ 1.27 µM) | 21 | 13 |  | 9 | 64 (≈ 325 µM) | 16 (≈ 81.4 µM) | 16 (≈ 81.4 µM) | > 64 | 16 (≈ 81.4 µM) | 0.25 (≈ 1.27 µM) | > 64 | 16 (≈ 81.4 µM) | 0.25 (≈ 1.27 µM) | 0.25 (≈ 1.27 µM) |  |  |  |
| O=C(NNc1ccc(F)cc1)c1ccc(F)cn1 [Compound 3d] | > 64 | 0.5 (≈ 2.01 µM) | 10 | 19 | 13 | 1 | > 64 | 64 (≈ 257 µM) | 64 (≈ 257 µM) | > 64 | 64 (≈ 257 µM) | 0.25 (≈ 1 µM) | > 64 | 64 (≈ 257 µM) | 0.5 (≈ 2.01 µM) | 0.25 (≈ 1 µM) |  |  |  |
